Consider 11 molecules from ChEMBL document CHEMBL1201862, “PubChem BioAssay data set” (2004).

Some test systems named below: NCI/ADR-RES; SF-539; NCI-H522; Hs-578T; OVCAR-3; HCT-15; 786-0; IGROV-1; A549; M14; SK-MEL-5; NCI-H226; SK-MEL-28; HCT-116; TK-10; RPMI-8226; MOLT-4; BT-549; Malme-3M; LOX IMVI.
What all share (experiment): NCI anticancer screen, dose series, 48 h

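Method: 48-hour compound exposure of cells in 96-well plates, five concentrations, linear interpolation of endpoints. GI50 marks 50% less growth.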 Activity calls are given as the source filed them. Cut-off read from the data, not from the text of the source: active = GI50 up to about 1.1 µM and inactive = higher.

Take `CCCCCC(=O)N[C@@H](c1ccccc1)C(O)C(=O)OC1C[C@@]2(O)C(OC(=O)c3ccccc3)C3[C@](C)(C(=O)[C@H](O)C(=C1C)C2(C)C)C(OC1OCC(O)C(O)C1O)C[C@H]1OC[C@@]31OC(C)=O` (some centres undefined): the GI50 in the experiment with NCI/ADR-RES was > 100 µM (inactive); in the experiment on SF-539, 0.494 µM (active); in the experiment with NCI-H522 it was 0.245 µM (active); in the experiment on Hs-578T it was 0.198 µM (active); with OVCAR-3, 0.706 µM (active); in the experiment on HCT-15, above 100 µM. Further, the GI50 in the experiment on 786-0 was 4.93 µM (inactive); in the experiment with IGROV-1 it was 3.99 µM (inactive); in the experiment with A549 it was 7.24 µM (inactive); in the experiment on M14, 2.32 µM (inactive); in the experiment with SK-MEL-5, 1.9 µM (inactive); in the experiment with NCI-H226, > 100 µM (inactive). For the same molecule, the GI50 with SK-MEL-28 was 2.7 µM (inactive); with HCT-116, 0.516 µM (active); in the experiment with TK-10, 63.2 µM (inactive); in the experiment on RPMI-8226, 0.486 µM (active); in the experiment on MOLT-4 it was 2.45 µM (inactive); in the experiment on BT-549, 2.62 µM (inactive).
With `N#Cc1ccc(Oc2nc3ccc(C(F)(F)F)cc3nc2-c2ccccc2)cc1`, the GI50 with NCI/ADR-RES is 16.9 µM (inactive); with SF-539, 29.8 µM (inactive); in the experiment with NCI-H522, 15.6 µM (inactive); in the experiment with Malme-3M, 17.8 µM (inactive); in the experiment with Hs-578T, 20.6 µM (inactive); with LOX IMVI, 27.2 µM (inactive). The GI50 is 21.8 µM (inactive) with OVCAR-3; 14.9 µM in the experiment on HCT-15; 17.1 µM (inactive) in the experiment on 786-0; 18.8 µM (inactive) in the experiment with IGROV-1; 16.7 µM (inactive) in the experiment with A549; 16.1 µM (inactive) with M14. Besides, the GI50 with SK-MEL-5 is 19.7 µM (inactive); with SK-MEL-28, 16.6 µM (inactive); with HCT-116, 15.3 µM (inactive); with TK-10, 19.5 µM (inactive); in the experiment with MOLT-4, 20 µM (inactive); with BT-549, 34.4 µM (inactive).
With `Cc1c2c(OCC(O)CN3CCN(c4ccccc4)CC3)nn(C)c(=O)c2c(C)n1-c1ccccc1` (centres undefined), the GI50 is 24.6 µM (inactive) in the experiment on NCI/ADR-RES; 19.2 µM (inactive) with SF-539; 20.6 µM (inactive) in the experiment with NCI-H522; 21.8 µM (inactive) with Malme-3M; 24.4 µM (inactive) in the experiment on Hs-578T; 20.5 µM (inactive) in the experiment on OVCAR-3. Moreover, the GI50 was 20.3 µM with HCT-15; 18.8 µM (inactive) in the experiment on 786-0; 35.2 µM (inactive) in the experiment with IGROV-1; 24.7 µM (inactive) in the experiment on A549; 16.3 µM (inactive) in the experiment with M14; 16.6 µM (inactive) in the experiment on SK-MEL-5. For the same molecule, the GI50 with NCI-H226 was 23.2 µM (inactive); with SK-MEL-28, 18.4 µM (inactive); in the experiment with HCT-116 it was 17.5 µM (inactive); in the experiment on TK-10, 47.5 µM (inactive); in the experiment on RPMI-8226 it was 21.6 µM (inactive); in the experiment with MOLT-4, 30.4 µM (inactive). In addition, the GI50 with BT-549 is 21.9 µM (inactive).
Consider `CC1=CC(=O)C(=C(C)C)CC1`, for which the GI50 with NCI/ADR-RES, in the experiment on NCI-H522, in the experiment on Malme-3M, with Hs-578T, with LOX IMVI and in the experiment with OVCAR-3 was > 100 µM (inactive) in each case. Further, the GI50 with HCT-15 is above 100 µM; in the experiment on 786-0 it was > 100 µM (inactive); in the experiment with IGROV-1 it was > 100 µM (inactive); in the experiment on A549 it was > 100 µM (inactive); with M14, > 100 µM (inactive); in the experiment with SK-MEL-5, > 100 µM (inactive). Also, the GI50 in the experiment with NCI-H226, in the experiment with SK-MEL-28, in the experiment on HCT-116, with TK-10, with MOLT-4 and in the experiment on BT-549 was > 100 µM (inactive) throughout.
`c1ccc2c(c1)/C(=N\NC1=NCCN1)c1nc3ccccc3nc1-2`: the GI50 was 5.85 µM (inactive) in the experiment on NCI/ADR-RES; 5.31 µM (inactive) with SF-539; 2.84 µM (inactive) in the experiment on NCI-H522; 10.2 µM (inactive) with Malme-3M; 16.6 µM (inactive) with Hs-578T; 3.24 µM (inactive) in the experiment with OVCAR-3. In addition, the GI50 with HCT-15 is 3.52 µM; in the experiment on 786-0, 3.91 µM (inactive); in the experiment with IGROV-1 it was 6.12 µM (inactive); in the experiment on A549, 3.86 µM (inactive); in the experiment with M14, 6.65 µM (inactive); with SK-MEL-5 it was 2.6 µM (inactive). Also, the GI50 is 3.63 µM (inactive) with NCI-H226; 13.5 µM (inactive) with SK-MEL-28; 0.863 µM (active) in the experiment with HCT-116; 14.1 µM (inactive) in the experiment with TK-10; 1 µM (active) in the experiment on RPMI-8226; 1.13 µM (inactive) in the experiment with MOLT-4. In addition, the GI50 in the experiment on BT-549 was 20.9 µM (inactive).
Consider `S=C(N1CCN(c2ccccc2)CC1)N1CCN(c2ccccc2)CC1`, for which the GI50 was > 100 µM (inactive) with NCI/ADR-RES; > 100 µM (inactive) with NCI-H522; > 100 µM (inactive) in the experiment on Malme-3M; > 100 µM (inactive) in the experiment with Hs-578T; > 100 µM (inactive) with OVCAR-3; above 100 µM in the experiment on HCT-15. Besides, the GI50 was > 100 µM (inactive) with 786-0; 90.8 µM (inactive) in the experiment on IGROV-1; > 100 µM (inactive) with A549; > 100 µM (inactive) in the experiment on M14; 95.1 µM (inactive) with SK-MEL-5; 94.6 µM (inactive) with NCI-H226. The GI50 in the experiment on SK-MEL-28 is 86.9 µM (inactive); with HCT-116 it was 81.8 µM (inactive); in the experiment with TK-10, > 100 µM (inactive); in the experiment on RPMI-8226, > 100 µM (inactive); in the experiment with MOLT-4 it was 71.3 µM (inactive); in the experiment with BT-549, > 100 µM (inactive).
With `COC(=O)C1=NN2c3ccccc3CN([C@@H](C)c3ccccc3)C(=O)[C@H]2[C@@H]1C`, the GI50 with NCI/ADR-RES is 26.1 µM (inactive); in the experiment with SF-539, 40.5 µM (inactive); with NCI-H522, 21.1 µM (inactive); in the experiment on Malme-3M, 38.4 µM (inactive); with Hs-578T, 67.1 µM (inactive); in the experiment with LOX IMVI, 35.2 µM (inactive). The GI50 with OVCAR-3 was 27 µM (inactive); in the experiment on HCT-15 it was 43.9 µM; in the experiment with 786-0, 57.7 µM (inactive); in the experiment on A549, 29.4 µM (inactive); in the experiment on M14 it was 35.2 µM (inactive); in the experiment with SK-MEL-5 it was 12.6 µM (inactive). For the same molecule, the GI50 in the experiment with NCI-H226 is 25.9 µM (inactive); in the experiment on SK-MEL-28, 49.2 µM (inactive); in the experiment on HCT-116, 33.7 µM (inactive); in the experiment with TK-10 it was 50.1 µM (inactive); with MOLT-4, 17.3 µM (inactive); with BT-549, 24.7 µM (inactive).
For the molecule `CC(=O)N1C(OC(C)C)CC(C)N1c1ccccc1` (centres undefined), the GI50 in the experiment on NCI/ADR-RES, in the experiment on SF-539, in the experiment on Malme-3M, in the experiment on Hs-578T, in the experiment on LOX IMVI and in the experiment with OVCAR-3 was > 10 µM (inactive) each time. The GI50 in the experiment on HCT-15 is above 10 µM; in the experiment with 786-0 it was > 10 µM (inactive); in the experiment on IGROV-1, > 10 µM (inactive); in the experiment on A549, > 10 µM (inactive); in the experiment with M14, > 10 µM (inactive); with SK-MEL-5, > 10 µM (inactive). Besides, the GI50 in the experiment on NCI-H226, in the experiment on SK-MEL-28, with HCT-116, in the experiment on TK-10, in the experiment with RPMI-8226 and in the experiment on MOLT-4 was > 10 µM (inactive) in each case. Further, the GI50 with BT-549 was > 10 µM (inactive).
In the case of `Cn1/c(=N\N=C2\C=C3CCCCC3(C)CC2)sc2ccccc21` (centres undefined), the GI50 with NCI/ADR-RES, in the experiment with SF-539, in the experiment on NCI-H522, with Malme-3M, in the experiment with Hs-578T and in the experiment on LOX IMVI was > 100 µM (inactive) in each case. Also, the GI50 is > 100 µM (inactive) in the experiment on OVCAR-3; above 100 µM with HCT-15; > 100 µM (inactive) in the experiment on 786-0; > 100 µM (inactive) in the experiment on IGROV-1; > 100 µM (inactive) in the experiment with A549; > 100 µM (inactive) in the experiment on M14. Moreover, the GI50 with SK-MEL-5, in the experiment with NCI-H226, in the experiment with SK-MEL-28, in the experiment on HCT-116, in the experiment with TK-10 and with BT-549 was > 100 µM (inactive) throughout.
In the case of `COc1cc(NP(=O)(Oc2ccccc2)Oc2ccccc2)ccc1Nc1c2ccccc2nc2c1[nH]c1ccccc12`, the GI50 with NCI/ADR-RES is 1.65 µM (inactive); with SF-539 it was 0.36 µM (active); in the experiment with NCI-H522, 1.6 µM (inactive); with Malme-3M it was 4.46 µM (inactive); in the experiment with Hs-578T, 17.1 µM (inactive); in the experiment with LOX IMVI it was 0.598 µM (active). The GI50 in the experiment on OVCAR-3 was 2.08 µM (inactive); in the experiment on HCT-15 it was 1.63 µM; with 786-0, 0.278 µM (active); with IGROV-1 it was 0.0923 µM (active); in the experiment on A549, 0.16 µM (active); in the experiment on M14 it was 0.891 µM (active). In addition, the GI50 is 1.22 µM (inactive) in the experiment with SK-MEL-5; 16.2 µM (inactive) in the experiment on SK-MEL-28; 3.21 µM (inactive) with HCT-116; 3.01 µM (inactive) with TK-10; 0.0147 µM (active) in the experiment on MOLT-4; 5.51 µM (inactive) in the experiment with BT-549.
In the case of `O=C(Cc1ccccc1)c1ccc2[nH]c(=O)oc2c1`, the GI50 was 18.4 µM (inactive) with NCI/ADR-RES; 32.2 µM (inactive) with SF-539; 1.03 µM (active) in the experiment with Hs-578T; 52.1 µM (inactive) with LOX IMVI; 35.2 µM (inactive) with OVCAR-3; 58.9 µM in the experiment on HCT-15. Besides, the GI50 in the experiment on 786-0 was 87.3 µM (inactive); with IGROV-1, 9.53 µM (inactive); in the experiment with M14 it was 47 µM (inactive); with NCI-H226 it was 1.22 µM (inactive); in the experiment with SK-MEL-28, 28.6 µM (inactive); in the experiment on HCT-116 it was 43.8 µM (inactive). The GI50 in the experiment with TK-10 is 97.3 µM (inactive); in the experiment on RPMI-8226, 9.23 µM (inactive); in the experiment on MOLT-4, 31.6 µM (inactive); with BT-549, 48.6 µM (inactive).
